{"source": "paper PMC12037037", "about": "(Proceedings of the National Academy of Sciences of the …, 2025)", "key": {"[1]": {"test_system": "E18 rat embryonic cortical neurons (DIV18-19)", "assay": "Spinogenesis assay using cultured rat cortical neurons", "assay_type": "cell-based"}, "[2]": {"test_system": "panel of 55 central nervous system targets", "assay": "Competitive radioligand binding selectivity panel (Eurofins Discovery)", "experimental": "Figure S3. Selectivity profiles for (+)-JRT and (–)-JRT across 55 central nervous system targets. The effects of (+)- JRT (10 μM) and (–)-JRT (10 μM) on a wide range of targets were assessed by Eurofins Discovery. Data represent % inhibition of the binding of a radioactively labeled ligand specific for each target. Assays were conducted in duplicate and the results were averaged.\nData Analysis and Statistics. Treatments were randomized, and data were analyzed by experimenters blinded to treatment conditions. Statistical analyses were performed using GraphPad Prism (version 10.0.3) unless noted otherwise.\nAll comparisons were planned prior to performing each experiment. No data were excluded. Data are represented as mean ± SEM, unless noted otherwise, with asterisks indicating *p < 0.05, **p < 0.01, ***p < 0.001, and ****p < 0.0001. Details of all statistical tests are shown in SI Appendix, Table S1. […]\nBoth (+)-JRT and (–)-\nJRT were synthesized in-house and judged to be analytically pure based on NMR and LC-MS data. For cell culture experiments, VEH = 0.1% (agonist studies) or 0.2% (antagonist studies) molecular biology grade dimethyl sulfoxide (Sigma-Aldrich). For in vivo experiments, compounds were administered i.p. at 5 mL/kg using 0.9% saline as the vehicle, unless noted otherwise. VEH = USP grade saline (0.9%). Stock solutions for behavioral assays were prepared fresh before use.\nFumarate salts of (+)-JRT and (–)-JRT were used for all biological studies unless noted otherwise.\nAnimals. All experimental procedures involving animals were approved by the Institutional Animal Care and Use Committee (IACUC) at the University of California, Davis, the Salk Institute, Weill Cornell Medicine, McLean Hospital (Harvard Medical School), or the Contract Research Organization (CRO) where the study was performed. All procedures involving animals adhered to principles described in the National Institutes of Health Guide for the Care and Use of Laboratory Animals.\nAnimals were either obtained from Jackson Laboratory (Sacramento, C.A.) or bred in-house unless noted otherwise. Power analyses were conducted to ensure appropriate sample sizes for all experiments involving animals. Animals were housed 2–5 animals of the same sex per cage on a 12h light/dark cycle and were given ad libitum access to food and water unless noted otherwise. The University of California, Davis, the Salk Institute, and Weill Cornell Medicine are accredited by the Association for Assessment and Accreditation of Laboratory Animal Care International (AAALAC). Whenever possible, both sexes were utilized. However, a single sex was utilized in some cases when 1) a contract research organization had only […]\nRadioligand Binding Selectivity Panel. Competitive radioligand binding studies for (+)-JRT (10 μM) and (–)-JRT (10 μM) were performed across a panel of receptors at Eurofins Discovery. Experiments were performed using the free bases of […]\nradioligand and source of receptor (5,6,7,8,9,10,11,12).\nRadioligand Binding Assays (5-HT2AR and 5-HT2CR). The 5-HT2AR and 5-HT2CR competitive radioligand binding assays were performed at Epics Therapeutics S.A. (Belgium, FAST-0505B) using conventional methods. Experiments were performed using the free bases of (+)-JRT and (–)-JRT. […] Nonspecific binding was determined by co-incubation with 200-fold excess of cold competitor DOI. […]"}, "[3]": {"target": "5-HT2A receptor membrane preparations obtained from PSYLI2 cells (Homo sapiens, UniProt P28223)", "sequence (P28223 1-263 limits assumed)": "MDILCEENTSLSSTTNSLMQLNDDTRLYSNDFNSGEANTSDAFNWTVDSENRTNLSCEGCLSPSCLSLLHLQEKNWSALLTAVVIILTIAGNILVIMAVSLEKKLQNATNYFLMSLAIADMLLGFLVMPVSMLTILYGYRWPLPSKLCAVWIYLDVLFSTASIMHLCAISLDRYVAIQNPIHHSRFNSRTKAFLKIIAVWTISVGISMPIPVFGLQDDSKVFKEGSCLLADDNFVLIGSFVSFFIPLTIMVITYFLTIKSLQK", "sequence (P28223 316-471 limits assumed)": "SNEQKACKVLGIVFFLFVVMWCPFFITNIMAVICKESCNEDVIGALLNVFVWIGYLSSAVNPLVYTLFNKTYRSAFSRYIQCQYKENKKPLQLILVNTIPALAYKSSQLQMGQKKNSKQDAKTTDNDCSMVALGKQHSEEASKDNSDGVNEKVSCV", "assay": "Ligand binding kinetics with [3H]-LSD on PSYLI2 membrane preparations", "conditions": "kinetics of competition binding vs [3H]-LSD", "method": "Ligand binding kinetics at the 5-HT2AR.\nData represent the mean ± SEM of 2–3 biological replicates.\nData represent the mean ± SEM of 2–4 biological replicates.\nBinding buffer consisted of 50 mM Tris HCl, 10 mM MgCl2, 0.1 mM EDTA disodium dihydrate in autoclaved\ndeionized water. The solution was adjusted to pH 7.4 with 10 M NaOH(aq) and stored at 4 °C. This solution was used in\nmembrane preparation generation as well as competition and kinetics assays.\nfree, see 15) were grown in 15-cm plates with Dulbecco’s Modified Eagle Media (DMEM) containing 10% fetal bovine serum and 1% penicillin/streptomycin. When the cells were >90% confluent, the media was removed, and the cells were washed\nwith Dulbecco’s Phosphate Buffered Saline (DPBS) (15 mL). Next, DMEM (15 mL) lacking fetal bovine serum and\npenicillin/streptomycin was added, and the cells were serum-starved for 4–12 hours. Roughly 10 mL of the DMEM was\nremoved, leaving ~5 mL of media in the plates before placing them on ice. Once on ice, the plates were scraped and the\ncontents were transferred to a pre-chilled 50 mL Falcon tube and then centrifuged (2,000 g, 10 min, 4 °C). The supernatant […]\nof 0.25 mL to use for quantification of protein concentration via a Bradford assay with a Coomassie protein assay reagent. […]\nFor association binding experiments, total and nonspecific binding was determined by adding binding buffer (2.5X solution, […]"}}, "data": [{"smiles": "CCN(CC)C(=O)[C@@H]1C=C2c3cccc4ccn(c34)C[C@H]2N(C)C1", "note": "[(+)-JRT]", "values": [{"measurement": "Dendritic spine growth in mature cortical cultures", "setting": "[1]; 1 μM, 24 h, DIV19, compared to vehicle (P < 0.0001) and CLZ (P = 0.0005)", "value": "promoted dendritic spine growth"}, {"measurement": "Effect of ketanserin (10 μM) pretreatment on compound-induced dendritic spine density", "setting": "[1]; compound 1 μM", "value": "blocks"}, {"measurement": "Selectivity across panel of 55 central nervous system targets", "setting": "[2]; 10 μM, free bases", "value": "highly selective for a subset of serotonin receptors"}, {"measurement": "Affinity for dopamine, histamine, or adrenergic receptors", "setting": "[2]; radioligand binding, unlike LSD", "value": "neither of these compounds exhibited affinity"}, {"measurement": "Affinity for dopamine, histamine, muscarinic, and adrenergic receptors", "setting": "[2]; unlike CLZ", "value": "lacks affinity"}, {"measurement": "Dissociation rate from the 5-HT2A receptor, fold faster than LSD", "setting": "[3]", "value": "approximately 10 fold"}]}]}
